Reference: ChEMBL document CHEMBL1130793, “Peptide inhibitors of N-succinyl diaminopimelic acid aminotransferase (DAP-AT): a novel class of antimicrobial compounds” (Bioorg Med Chem Lett, 1998)

Legend:
[1] = Michaelis-Menten constant was determined; assay type: ADME; conditions: read-out: Km app
[2] = Pharmacokinetic parameter was determined; assay type: ADME
[3] = Ratio of the Kcat and Km app was determined; assay type: ADME
[4] = test system: N-succinyldiaminopimelate aminotransferase (E. coli); assay: Compound was tested for inhibition of N-Succinyl Diaminopimelic Acid Aminotransferase from Escherichia coli.; conditions: concentration not given here
[5] = test system: N-succinyldiaminopimelate aminotransferase (E. coli); assay: Compound was tested for inhibition of N-Succinyl Diaminopimelic Acid Aminotransferase from Escherichia coli; conditions: concentration not given here
[6] = test system: N-succinyldiaminopimelate aminotransferase (E. coli); assay: Compound was tested for 50% inhibition of N-Succinyl Diaminopimelic Acid Aminotransferase (DAP-AT) from E. coli; overall rate of substrate consumption increases at 20 mM
[7] = test system: Escherichia coli; assay: Regeneration time when tested against inhibition of N-Succinyl Diaminopimelic Acid Aminotransferase from Escherichia coli
[8] = Catalytic constant was determined; assay type: ADME

| Compound | Km [1] [µM] | k cat [2] [s⁻¹] | k cat/Km [3] [M⁻¹ s⁻¹] | inhibition [4] [%] | T1/2 regen [7] [min] | also measured |
| --- | --- | --- | --- | --- | --- | --- |
| CC(=O)N[C@@H](Cc1ccccc1)C(=O)N[C@@H](CCCC(=O)C(=O)[O-])C(=O)[O-].[Li+].[Li+] | < 1000 | < 2.1 | < 2100 | < 0.8 |  |  |
| CC(=O)N[C@@H](CC(=O)[O-])C(=O)N[C@@H](CCCC(=O)C(=O)[O-])C(=O)[O-].[Li+].[Li+].[Li+] | 1570 | 40 | 25400 |  |  | inhibition [5]: 9.3%; IC50 [6]: overall rate of substrate consumption increases at 20 mM |
| NNC(CCC[C@H](NC(=O)CCC(=O)O)C(=O)O)C(=O)O (stereo partly specified) |  |  |  |  | 78.6 |  |
| CC(=O)N[C@@H](CC(=O)O)C(=O)N[C@@H](CCCC(NN)C(=O)O)C(=O)O (stereo partly specified) |  |  |  |  | 48.95 |  |
| CC(=O)N[C@@H](Cc1ccccc1)C(=O)N[C@@H](CCCC(NN)C(=O)O)C(=O)O (stereo partly specified) |  |  |  |  | 6.07 |  |
| O=C(O)CCC(=O)N[C@@H](CCCC(=O)C(=O)O)C(=O)O | 600 |  | 273000 | 100 |  | k cat [8]: 164 s⁻¹ |
